Test results: paper PMC11017298, “Macrocyclic Oxindole Peptide Epoxyketones—A Comparative Study of Macrocyclic Inhibitors of the 20S Proteasome” (ACS Medicinal Chemistry Letters, 2024)
Read-outs that look alike come from different tables or passages of the source.

What was measured:
Type in all cases: biochemical
[1] = molecular target: T1, m-calpain (Sus scrofa, UniProt P35750); experiment: Fluorometric kinetic enzyme assay, m-calpain (Suc-LLVY-AMC)
T1 construct: erythrocytes calpain-1 were purchased from Millipore; purchased Millipore; host or cells: porcine erythrocytes
T1 sequence (P35750 1-714): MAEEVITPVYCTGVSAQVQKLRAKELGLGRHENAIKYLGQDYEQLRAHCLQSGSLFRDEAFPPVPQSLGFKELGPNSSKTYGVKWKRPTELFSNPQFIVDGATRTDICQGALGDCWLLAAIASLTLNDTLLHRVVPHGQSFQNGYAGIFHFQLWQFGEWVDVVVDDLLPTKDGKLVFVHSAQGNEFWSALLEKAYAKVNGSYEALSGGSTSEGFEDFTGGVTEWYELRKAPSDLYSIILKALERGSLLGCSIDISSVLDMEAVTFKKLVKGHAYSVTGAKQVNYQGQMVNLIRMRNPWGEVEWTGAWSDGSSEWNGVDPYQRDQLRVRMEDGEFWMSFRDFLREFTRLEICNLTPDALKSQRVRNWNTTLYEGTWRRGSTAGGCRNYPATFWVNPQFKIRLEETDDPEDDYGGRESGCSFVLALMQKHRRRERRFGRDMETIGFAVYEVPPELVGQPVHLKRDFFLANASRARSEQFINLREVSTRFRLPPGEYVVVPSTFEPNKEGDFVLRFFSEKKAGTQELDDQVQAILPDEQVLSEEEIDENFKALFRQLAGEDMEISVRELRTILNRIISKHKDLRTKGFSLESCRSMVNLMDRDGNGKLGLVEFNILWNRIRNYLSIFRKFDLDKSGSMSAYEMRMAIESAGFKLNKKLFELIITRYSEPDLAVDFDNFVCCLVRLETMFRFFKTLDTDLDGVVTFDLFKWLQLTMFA
T1 sequence (P04574 1-266 partner): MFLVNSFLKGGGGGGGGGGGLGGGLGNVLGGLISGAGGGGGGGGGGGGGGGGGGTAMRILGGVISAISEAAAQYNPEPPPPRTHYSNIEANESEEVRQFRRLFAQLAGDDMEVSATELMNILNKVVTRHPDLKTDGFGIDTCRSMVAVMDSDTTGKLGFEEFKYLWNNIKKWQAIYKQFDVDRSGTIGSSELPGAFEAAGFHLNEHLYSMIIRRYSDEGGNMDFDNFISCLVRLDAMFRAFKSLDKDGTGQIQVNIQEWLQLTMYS

[2] = molecular target: T2, human 20S proteasome PGPH-L activity (Homo sapiens, UniProt P28072); experiment: Fluorometric kinetic enzyme assay, 20S proteasome PGPH-L activity (Cbz-LLE-AMC)
T2 construct: human RBC proteasome was purchased from South Bay Bio; purchased South Bay Bio; host or cells: human red blood cells
Experimental: (§1) Fluorometric kinetic enzyme inhibition assays (for details, see Supporting Information) were performed for the ChT-L activity of the constitutive 20S proteasome to compare IC50 values for 5 with linear analogue 6, unoxidized macrocycles 15a and 15b, and macrocyclic C-terminal amide 12 (Table 1). Furthermore, inhibition of the 20S proteasomal ChT-L activity was compared with T-L and PGPH-L activities and with inhibition of serine protease chymotrypsin and cysteine proteases cathepsin B and m-calpain.
(§2) 6. In Vitro Kinetic Enzyme Assays
(§3) The inhibitory potency and selectivity of the final compounds were tested using in vitro fluorescent enzyme kinetics. The enzyme assays used the fluorogenic substrate Suc-Leu-Leu-Val-Tyr-AMC (Suc-LLVY-AMC) and either the human 20S proteasome or alternate proteases chymotrypsin, m-calpain and cathepsin B. For cathepsin B, Cbz-Arg-Arg-AMC was used as the fluorogenic substrate. Kinetic enzyme assays were carried out on a fluorescent 96-well plate reader and AMC-substrate hydrolysis was measured at 353 nm excitation and 442 nm emission. Wells with inhibitor and wells with control solution were run in tandem. Vi and v0 were calculated from the slope of the measured relative fluorescent units (RFUs) graphed against time for inhibitor and control wells, respectively. Values for vi /v0 were plotted as a function of inhibitor concentration with GraphPad Prism and IC50 values were calculated from a nonlinear regression analysis of the data ([Inhibitor] vs. response, three parameters). […]

[3] = molecular target: T3, chymotrypsin (Bos taurus, UniProt P00766); experiment: Fluorometric kinetic enzyme assay, chymotrypsin (Suc-LLVY-AMC)
T3 construct: chymotrypsin was purchased from Sigma Aldrich; purchased Sigma Aldrich; host or cells: bovine pancreas

[4] = molecular target: T4, human 20S proteasome T-L activity (Homo sapiens, UniProt Q99436); experiment: Fluorometric kinetic enzyme assay, 20S proteasome T-L activity (Ac-RLR-AMC)
T4 construct: human RBC proteasome was purchased from South Bay Bio; purchased South Bay Bio; host or cells: human red blood cells
Experimental: as §1, §2, §3
Human 20S Proteasome T-L Activity: A well was loaded with 69 µL of buffer (50 mM Tris, 1 mM EDTA, 100 mM NaCl, pH 7.5), 2 µL of fluorogenic substrate (Ac-RLR-AMC, 59 mM in DMSO), 2 µL of human 20S proteasome (2.6 µM in H2O) and either 2 µL of inhibitor (at varying concentrations in DMSO) or 2 µL of DMSO (control). […]

[5] = molecular target: T5, human 20S proteasome ChT-L activity (Homo sapiens, UniProt P28074); experiment: Fluorometric kinetic enzyme assay, 20S proteasome ChT-L activity (Suc-LLVY-AMC); conditions: for IC50: constitutive human 20S proteasome, Suc-LLVY-AMC, 37 C, 10 min
T5 construct: human RBC proteasome was purchased from South Bay Bio; purchased South Bay Bio; host or cells: human red blood cells
Experimental: as §1, §2
The inhibitory potency and selectivity of the final compounds were tested using in vitro fluorescent enzyme kinetics. The enzyme assays used the fluorogenic substrate Suc-Leu-Leu-Val-Tyr-AMC (Suc-LLVY-AMC) and either the human 20S proteasome or alternate proteases chymotrypsin, m-calpain and cathepsin B. For cathepsin B, Cbz-Arg-Arg-AMC was used as the fluorogenic substrate. Kinetic enzyme assays were carried out on a fluorescent 96-well plate reader and AMC-substrate hydrolysis was measured at 353 nm excitation and 442 nm emission. Wells with inhibitor and wells with control solution were run in tandem. Vi and v0 were calculated from the slope of the measured relative fluorescent units (RFUs) graphed against time for inhibitor and control wells, respectively. Values for vi /v0 were plotted as a function of inhibitor concentration with GraphPad Prism and IC50 values were calculated from a nonlinear regression analysis of the data ([Inhibitor] vs. response, three parameters).
Human 20S Proteasome ChT-L Activity: A well was loaded with 86 µL of buffer (20 mM HEPES, 0.5 mM EDTA, 0.037% SDS, pH 7.8), 2 µL of fluorogenic substrate (Suc-LLVY-AMC, 5 mM in DMSO), 20 µL of human 20S proteasome (0.34 µM in H2O) and either 2 µL of inhibitor (at varying concentrations in DMSO) or 2 µL of DMSO (control). The fluorescent signal of the cleaved AMC chromophore was measured in RFUs at 37 °C over a span of 10 minutes with measurements taken every 20 seconds. […]

[6] = molecular target: T6, cathepsin B enzyme from human liver (Homo sapiens, UniProt P07858); experiment: Fluorometric kinetic enzyme assay, cathepsin B (Cbz-Arg-Arg-AMC)
T6 construct: from human liver; purchased Millipore; host or cells: human liver

[7] = Suc-LLVY-AMC, N.I. = no inhibition at 130 μM, read-out: IC50 m-Calpain
[8] = human 20S proteasome, Cbz-LLE-AMC, N.I. = no inhibition at 130 μM, read-out: IC50 20S Proteasome PGPH-L Activity
[9] = Suc-LLVY-AMC, N.I. = no inhibition at 130 μM, read-out: IC50 Chymotrypsin
[10] = human 20S proteasome, Ac-RLR-AMC, N.I. = no inhibition at 130 μM, read-out: IC50 20S Proteasome T-L Activity
[11] = human liver enzyme, Cbz-Arg-Arg-AMC, pH 6.0, N.I. = no inhibition at 130 μM, read-out: IC50 Cathepsin B

SMILES | IC50 [1, 7] [µM] | IC50 [2, 8] [µM] | IC50 [3, 9] [µM] | IC50 [4, 10] [µM] | IC50 [5] [µM] | IC50 [6, 11] [µM] | inhibition of m-calpain, in words [1] | inhibition of cathepsin B, in words [6] | inhibitory potency for the proteasome, in words ([5]; comparison among tested inhibitors) | inhibition of PGPH-L activity, in words [2] | inhibition of chymotrypsin, in words [3] | inhibition of T-L activity, in words [4] | IC50 [1] [µM] | IC50 [2] [µM] | IC50 [3] [µM] | IC50 [4] [µM] | fold lower potency (ChT-L) than macrocycle 5 ([5]; linear analogue versus macrocyclic 5) [fold] | IC50 [6] [µM]
CC(=O)N[C@H]1Cc2ccc([N+](=O)[O-])c(c2)Oc2ccc(cc2)C[C@@H](C(=O)N[C@@H](CC(C)C)C(=O)[C@@]2(C)CO2)NC(=O)[C@H](CC(C)C)NC1=O [15a] | > 130 | > 130 | > 130 | > 130 | 0.55 ± 0.09 | > 130 |  |  |  |  |  |  |  |  |  |  |  | 
CC(=O)N[C@@H](Cc1ccc([N+](=O)[O-])c(F)c1)C(=O)N[C@@H](CC(C)C)C(=O)N[C@@H](CC1C(=O)Nc2ccc(O)cc21)C(=O)N[C@@H](CC(C)C)C(=O)[C@@]1(C)CO1 (stereo partly drawn) [compound 6] |  |  |  |  | 1 ± 0.1 |  |  |  |  |  |  |  | > 130 | > 130 | > 130 | > 130 | 4 | > 130
CC(C)C[C@@H](C=O)NC(=O)[C@@H]1Cc2ccc(cc2)Oc2cc(ccc2[N+](=O)[O-])C[C@H](NC(=O)OCc2ccccc2)C(=O)N[C@@H](CC(C)C)C(=O)N1 [compound 16, reference compound] | 2 ± 0.3 | 7.51 ± 2.32 | > 130 | > 130 | 0.24 ± 0.06 | 3.1 ± 1 | inhibits | inhibits |  |  |  |  |  |  |  |  |  | 
CC(=O)N[C@H]1Cc2ccc([N+](=O)[O-])c(c2)Oc2ccc(cc2)CC[C@@H](C(=O)N[C@@H](CC(C)C)C(=O)[C@@]2(C)CO2)NC(=O)[C@H](CC(C)C)NC1=O [15b] | > 130 | > 130 | > 130 | > 130 | 2.9 ± 0.42 | > 130 |  |  |  |  |  |  |  |  |  |  |  | 

Further lines, with some results ahead:

IC50 [1, 7] [µM] | IC50 [2, 8] [µM] | IC50 [3, 9] [µM] | IC50 [4, 10] [µM] | IC50 [5] [µM] | IC50 [6, 11] [µM] | inhibition of m-calpain, in words [1] | inhibition of cathepsin B, in words [6] | inhibitory potency for the proteasome, in words ([5]; comparison among tested inhibitors) | inhibition of PGPH-L activity, in words [2] | inhibition of chymotrypsin, in words [3] | inhibition of T-L activity, in words [4] | SMILES | IC50 [1] [µM] | IC50 [2] [µM] | IC50 [3] [µM] | IC50 [4] [µM] | fold lower potency (ChT-L) than macrocycle 5 ([5]; linear analogue versus macrocyclic 5) [fold] | IC50 [6] [µM]
> 130 | > 130 | > 130 | 46.1 ± 3.1 | 25 ± 1 | > 130 |  |  | least potent inhibitor |  |  |  | CC(=O)N[C@H]1Cc2ccc([N+](=O)[O-])c(c2)Oc2ccc3c(c2)C(C[C@@H](C(=O)N[C@@H](CC(C)C)C(N)=O)NC(=O)[C@H](CC(C)C)NC1=O)C(=O)N3 (stereo partly drawn) [compound 12] |  |  |  |  |  | 
> 130 | 52.5 ± 16.6 | > 130 | > 130 | 0.19 ± 0.02 | > 130 | not found to have any cross-reactivity | not found to have any cross-reactivity |  | does not significantly inhibit | not found to have any cross-reactivity | does not significantly inhibit | CC(=O)N[C@H]1Cc2ccc([N+](=O)[O-])c(c2)Oc2ccc3c(c2)C(C[C@@H](C(=O)N[C@@H](CC(C)C)C(=O)[C@@]2(C)CO2)NC(=O)[C@H](CC(C)C)NC1=O)C(=O)N3 (stereo partly drawn) [compound 5] |  |  |  |  |  | 
> 130 |  | > 130 |  |  | > 130 |  |  |  |  |  |  | CC(C)C[C@H](NC(=O)[C@H](CCc1ccccc1)NC(=O)CN1CCOCC1)C(=O)N[C@@H](Cc1ccccc1)C(=O)N[C@@H](CC(C)C)C(=O)[C@@]1(C)CO1 [carfilzomib, reference compound] |  |  |  |  |  | 
